# Patent publication US20040033517A1, “Compositions and methods relating to endothelial cell signaling using the protease activated receptor (PAR1)” (priority 2002, published 2004)
# Where two headings read alike, the source gives them in different places.
# How the values were obtained:
# [1] = test system: human umbilical vein endothelial cells HUVEC-C; type: cell-based; conditions: endothelial cells
# Excerpt: Microarray Analysis. […] Total RNA was isolated followed by reverse transcription. Purified double stranded cDNA was in vitro transcribed in the presence of biotinylated dUTP and dCTP, fragmented cRNA was hybridized to the HG-U95Av2 array (Affymetrix, Santa Clara, Calif.), followed by staining with streptavidin-phycoerythrin. Arrays were scanned and analyzed using GeneChip3.1 software. […] An average fold-induction for the three independent experiments was obtained by calculating the means of the logarithm of the individual fold-increases for each agonist.
# [2] = test system: thrombin-mediated PAR1 signaling; conditions: 100 nM hirudin; M. Riewald et al., Blood 97: 3109, 2001; cited from earlier work
substance,measurement,setting,value
Thrombin,"Induction (log 2), A1743606 wg51108.x1 Homo sapiens cDNA",[1],−0.05 log 2
same,"Induction (log 2), AB002450 Homo sapiens mRNA from chromosome 5q21-22, clone-A3-A",[1],0.45 log 2
same,"Induction (log 2), AB003184 Homo sapiens mRNA for ISLR",[1],0.05 log 2
same,"Induction (log 2), AB012229 fructose-6-phosphate,2-kinase/fructose-2,6-bisphosphatase",[1],0.25 log 2
same,"Induction (log 2), AF000421 TTF-1 interacting peptide 12 mRNA",[1],0.20 log 2
same,"Induction (log 2), AF015451 Homo sapiens Usurpin-beta mRNA",[1],0.45 log 2
same,"Induction (log 2), AF022375 Homo sapiens vascular endothelial growth factor mRNA",[1],0.75 log 2
same,"Induction (log 2), AF024710 Homo sapiens vascular endothelial growth factor (VEGF) mRNA",[1],0.90 log 2
same,"Induction (log 2), AF042083 BH3 interacting domain death agonist (BID) mRNA",[1],0.20 log 2
same,"Induction (log 2), AF094481 trinucleotide repeat DNA binding protein p20-CGGBP (CGGBP) gene",[1],0.50 log 2
same,"Induction (log 2), AF095154 Homo sapiens C1q-related factor mRNA",[1],0.10 log 2
same,"Induction (log 2), AF098462 Homo sapiens stanniocalcin-related protein mRNA",[1],1.00 log 2
same,"Induction (log 2), AJ000480 Homo sapiens mRNA for C8FW phosphoprotein",[1],1.15 log 2
same,"Induction (log 2), Cluster Incl U88629 Human RNA polymerase II elongation factor ELL2",[1],0.70 log 2
same,"Induction (log 2), Cluster Incl X66360 H.sapiens mRNA PCTAIRE-2 for serine/threonine protein kinase",[1],0.35 log 2
same,"Induction (log 2), D29990 Human mRNA for cationic amino acid transporter 2",[1],0.75 log 2
same,"Induction (log 2), D38449 Human mRNA for G protein-coupled receptor",[1],0.10 log 2
same,"Induction (log 2), D49817 6-phosphofructo-2-kinase/fructose-2, 6-bisphosphatase mRNA",[1],0.20 log 2
same,"Induction (log 2), D78579 Homo sapiens mRNA for neuron derived orphan receptor",[1],1.55 log 2
same,"Induction (log 2), J04102 Human erythroblastosis virus oncogene homolog 2 (ets-2) mRNA",[1],0.50 log 2
same,"Induction (log 2), L07261 Human alpha adducin mRNA",[1],0.10 log 2
same,"Induction (log 2), L19871 Human activating transcription factor 3 (ATF3) mRNA",[1],1.10 log 2
same,"Induction (log 2), L38487 Human estrogen receptor-related protein (hERRa1) mRNA",[1],0.10 log 2
same,"Induction (log 2), M14648 Human cell adhesion protein (vitronectin) receptor alpha subunit mRNA",[1],0.60 log 2
same,"Induction (log 2), M19481 Human follistatin gene",[1],1.30 log 2
same,"Induction (log 2), M22489 Human bone morphogenetic protein 2A (BMP-2A) mRNA",[1],0.90 log 2
same,"Induction (log 2), M28130 Human interleukin 8 (IL8) gene",[1],0.40 log 2
same,"Induction (log 2), M29039 Human transactivator (jun-B) gene",[1],0.60 log 2
same,"Induction (log 2), M36820 Human cytokine (GRO-beta) mRNA",[1],0.35 log 2
same,"Induction (log 2), M59964 Human stem cell factor mRNA",[1],0.75 log 2
same,"Induction (log 2), M64349 Human cyclin D (cyclin D1) mRNA",[1],0.00 log 2
same,"Induction (log 2), M96995 epidermal growth factor receptor-binding protein GRB2 (EGFRBP-GRB2) mRNA",[1],0.05 log 2
same,"Induction (log 2), Neurofibromatosis 2 Tumor Suppressor",[1],0.55 log 2
same,"Induction (log 2), Tyrosine Phosphatase, Epsilon",[1],1.40 log 2
same,"Induction (log 2), U08015 HumanNF-ATc mRNA",[1],0.55 log 2
same,"Induction (log 2), U12471 Human thrombospondin-1 gene",[1],0.70 log 2
same,"Induction (log 2), U12767 Human mitogen induced nuclear orphan receptor (MINOR) mRNA",[1],1.15 log 2
same,"Induction (log 2), U15932 Human dual-specificity protein phosphatase mRNA",[1],0.60 log 2
same,"Induction (log 2), U18671 Human Stat2 gene",[1],0.05 log 2
same,"Induction (log 2), U20816 Human nuclear factor kappa-B2 (NF-KB2) gene",[1],0.70 log 2
same,"Induction (log 2), U23070 Human putative transmembrane protein (nma) mRNA",[1],1.10 log 2
same,"Induction (log 2), U25997 Homo sapiens stanniocalcin precursor (STC) mRNA",[1],1.10 log 2
same,"Induction (log 2), U33838 Human NF-kappa-B p65delta3 mRNA",[1],0.10 log 2
same,"Induction (log 2), U42391 Human myosin-IXb mRNA",[1],−0.15 log 2
same,"Induction (log 2), U65093 Human msg1-related gene 1 (mrg1) mRNA",[1],0.95 log 2
same,"Induction (log 2), U72066 Homo sapiens CtBP interacting protein CtIP (CtIP) mRNA",[1],0.70 log 2
same,"Induction (log 2), U76368 Human cationic amino acid transporter-2A (ATRC2) mRNA",[1],0.75 log 2
same,"Induction (log 2), U83981 Homo sapiens apoptosis associated protein (GADD34) mRNA",[1],0.50 log 2
same,"Induction (log 2), U88629/FEATURE Human RNA polymerase II elongation factor ELL2",[1],0.75 log 2
same,"Induction (log 2), W28170 43a12 Homo sapiens cDNA",[1],0.15 log 2
same,"Induction (log 2), W28257 44c1 Homo sapiens cDNA",[1],0.20 log 2
same,"Induction (log 2), X02469 Human mRNA for p53 cellular tumor antigen",[1],−0.10 log 2
same,"Induction (log 2), X14787 Human mRNA for thrombospondin",[1],0.40 log 2
same,"Induction (log 2), X14798 Human DNA for c-ets-1 proto-oncogene",[1],0.75 log 2
same,"Induction (log 2), X16706 Human fra-2 mRNA",[1],0.50 log 2
same,"Induction (log 2), X51345 Human jun-B mRNA for JUN-B protein",[1],0.75 log 2
same,"Induction (log 2), X51435 Human PRDII-BF1 gene for a DNA-binding protein",[1],0.85 log 2
same,"Induction (log 2), X66360/FEATURE H.sapiens mRNA PCTAIRE-2 for serine/threonine protein kinase",[1],0.65 log 2
same,"Induction (log 2), X68277 H.sapiens CL 100 mRNA for protein tyrosine phosphatase",[1],1.75 log 2
same,"Induction (log 2), X69086 H.sapiens mRNA for utrophin",[1],0.60 log 2
same,"Induction (log 2), X69699 H.sapiens Pax8 mRNA",[1],0.10 log 2
same,"Induction (log 2), X98248 H.sapiens mRNA for sortilin",[1],−0.15 log 2
same,"Induction (log 2), Z12173 H.sapiens GNS mRNA encoding glucosamine-6-sulphatase",[1],0.60 log 2
same,"Induction (log 2), Z12830 H.sapiens mRNA for SSR alpha subunit",[1],0.40 log 2
same,"Induction (log 2), Z23115 H.sapiens bc1-xL mRNA",[1],0.10 log 2
same,"Induction (log 2), Z29083 H.sapiens 5T4 gene for 5T4 Oncofetal antigen",[1],0.10 log 2
same,"Induction (log 2), Z48579 H.sapiens mRNA for disintegrin-metalloprotease (partial)",[1],0.20 log 2
same,"Induction (log 2), D13540 Homo sapiens SH-PTP3 mRNA for protein-tyrosine phosphatase",[1]; first entry (r8),0.65 log 2
same,"Induction (log 2), W28616 49b9 Homo sapiens cDNA",[1]; first entry (r15),0.30 log 2
same,"Induction (log 2), W28616 49b9 Homo sapiens cDNA",[1]; second entry (r30),−0.05 log 2
same,"Induction (log 2), D13540 Homo sapiens SH-PTP3 mRNA for protein-tyrosine phosphatase",[1]; second entry (r54),0.40 log 2
hirudin,Block of cell surface thrombin-mediated PAR1 signaling,[2],block all cell surface thrombin-mediated PAR1 signaling
